Test results from patent publication US8143254B2, “Methods for modulating ion channels” (Cornell Research Foundation, Inc., priority 2005, dated 2012).
Like-named read-outs stand apart in the source and are kept apart here.

Target: T1, Kv2.1 (Rattus norvegicus, UniProt P15387)
T1 construct: expressed in transfected cells; host or cells: Xenopus laevis oocytes (cRNA injection, pGA1 vector)
Assay: Two-electrode voltage clamp (TEVC) of Xenopus oocytes expressing Kv2.1, bath-applied compound
Type: cell-based
Settings: for effect on Kv2.1 currents: 1 mM, bath applied; for slope of dose response curve: Kv2.1, Example 8; for relative sensitivity of Kv2.1 and Kv3.4: Kv2.1 versus Kv3.4; for mean inhibition at 0 mV relative to +60 mV: Kv2.1, voltage dependence of block
Description: The ion channel subunit genes are in expression vectors that facilitate in vitro transcription of channel cRNA using the Ambion mMessage mMachine in vitro transcription kit. cDNA constructs are column-purified, linearized with the appropriate restriction enzyme that cuts a single site following the polyA tail, then purified by precipitation and transcribed in vitro using a promoter, such as T7, T3 and SP6. Transcribed cRNA is purified by precipitation and resuspended in RNAse-free water ready for injection. Each transcription can provide enough cRNA for several months of experiments.
Stage V-VI Xenopus oocytes are separated into small groups using forceps, defolliculated by agitation in Ca^2+-free Ringer solution containing collagenase for one hour, washed, then stored at 15° C. in full Ringers solution before injection. cRNA sufficient to give 1-10 μA of current at physiological voltages for each channel type is injected into Xenopus oocytes (selected by appearance for overall health and uniformity of color) using a Sutter manual injector (typically 0.1-5 ng cRNA in a volume of 25-50 nl). The oocytes are then stored for 1-3 days at 15° C. before TEVC recording. Beta subunit cRNA is co-injected as appropriate, typically 2 ng per oocyte.
Whole cell oocyte experiments are performed using a Warner OC-725C amplifier and pClamp9 software with oocytes bathed in a small-volume Warner oocyte bath and viewed with a Fisher dissection microscope. Bath solution for whole cell oocyte recordings, e.g., for potassium channel analysis, is generally (in mM): 96 NaCl, 4 KCl, 1 MgCl2, 0.3 CaCl2, 10 HEPES (Ph 7.4); whole-cell oocyte TEVC pipettes are filled with 3 M KCl. Oocyte patches are studies using an Axon Instruments small-volume bath, viewed with an Olympus IX50 inverted microscope, and recordings made using an Axon Multiclamp 700 A Amplifier and pCLAMP9 software (Axon Instruments). Extracellular solution, e.g., for potassium channel analysis, is generally (in mM): 135 NaCl, 5 KCl, 1.2 MgCl2, 5 HEPES, 2.5 CaCl2, 10 D-glucose (Ph 7.4). Intracellular solution, e.g., for potassium channel analysis, is generally (in mM): 10 NaCl, 117 KCl, 2 MgCl2, 11 HEPES, 11 EGTA, ICaCl2 (Ph 7.2). Patch pipettes are approximately 3-5 MΩ resistance when filled with recording solution.
Quantitative aspects of ion action on ion channels are compared using standard pulse protocols. Pulse times and voltages will vary according to which currents are being studied. […] Drug inhibition constants are calculated after generating a dose response curve by fitting with a logistic dose-response function (see equation (i) below). Typically, 5-20 cells per group are recorded from for heterologous expression experiments. Values are to be stated as mean±SEM with statistical significance set at p<0.05 (unpaired students t-test, ANOVA or the Mann-Whitney Rank Sum Test as appropriate).
Injected oocytes, bathed in bath solution containing 4 mM KCl, unless otherwise stated, are impaled with current and voltage electrodes and clamped at −80 mV holding potential using a Warner OC-725C amplifier. […] Drug concentrations are chosen to ensure inhibition values between 0 and 90-100% with at least 3 values within the linear portion of the curve so that the inhibition constant (Ki) can be calculated accurately by fitting with a logistic dose-response function (formula (i)) using the Origin 6.1 graph package.
Kv2.1 mutants were constructed using the QuickChange Multi Site-Directed Mutagenesis Kit (Stratagene, La Jolla, Calif.). […] For oocyte expression, Kv3.4 was in pBF1, Kv4.2 was in pRAT. cRNA transcripts were produced from SacII-linearized (Kv2.1), Mlullinearized (Kv3.4) and Not1-linearized (Kv4.2) DNA templates using the T3 (Kv2.1), SP6 (Kv3.4) and T7 (Kv4.2) mMessage mMachine kits (Ambion, Austin, Tex.). cRNA was quantified by spectrophotometry and its size integrity verified by gel electophoresis.

[1] = IC50, Kv2.1, logistic dose response fit, Example 8

T1 sequence (P15387 whole entry): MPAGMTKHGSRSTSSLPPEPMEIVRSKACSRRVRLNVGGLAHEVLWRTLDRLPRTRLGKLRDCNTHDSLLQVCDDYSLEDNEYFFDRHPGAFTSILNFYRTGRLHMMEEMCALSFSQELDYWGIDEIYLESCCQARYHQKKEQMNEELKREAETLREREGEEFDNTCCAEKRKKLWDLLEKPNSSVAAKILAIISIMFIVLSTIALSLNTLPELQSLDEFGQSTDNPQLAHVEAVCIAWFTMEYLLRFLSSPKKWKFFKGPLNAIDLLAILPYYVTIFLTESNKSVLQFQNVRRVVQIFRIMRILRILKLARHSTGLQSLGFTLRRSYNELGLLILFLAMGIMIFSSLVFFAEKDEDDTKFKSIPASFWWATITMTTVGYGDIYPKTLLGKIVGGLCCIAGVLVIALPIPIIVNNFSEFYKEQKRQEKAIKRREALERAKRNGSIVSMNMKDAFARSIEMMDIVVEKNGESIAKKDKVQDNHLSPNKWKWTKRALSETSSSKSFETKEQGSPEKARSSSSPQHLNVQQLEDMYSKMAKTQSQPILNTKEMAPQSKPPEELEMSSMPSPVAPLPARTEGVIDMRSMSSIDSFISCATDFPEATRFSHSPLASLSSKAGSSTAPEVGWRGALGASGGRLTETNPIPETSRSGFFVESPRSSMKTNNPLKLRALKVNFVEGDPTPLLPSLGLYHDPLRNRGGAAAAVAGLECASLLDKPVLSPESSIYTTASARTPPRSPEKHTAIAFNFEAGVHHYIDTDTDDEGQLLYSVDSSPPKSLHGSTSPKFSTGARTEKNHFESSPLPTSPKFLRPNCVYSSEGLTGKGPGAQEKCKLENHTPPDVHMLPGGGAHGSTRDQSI

SMILES	effect on Kv2.1 currents	slope of dose response curve	relative sensitivity of Kv2.1 and Kv3.4	mean inhibition at 0 mV relative to +60 mV [fold]	p (Hill slope) of logistic dose-response fit (Kv2.1 alone, Example 4)	IC50 [1] [µM]	also measured
c1cc(C[N+]23CCN(CC2)CC3)ccc1C[N+]12CCN(CC1)CC2 [JC638.2α, α,α′-[bis(4-aza-1-azoniabicyclo[2.2.2]octanyl)]p-xylene]	significant inhibition	1.4±0.1	significantly differentiate between Kv2.1 and Kv3.4				IC50 (Kv2.1, logistic dose response fit, Example 8, read-out: IC50): 186 ± 17 µM; voltage dependence of block (inhibition attenuated at more positive voltages): voltage dependent block
CCCCCCCCCCCC[N+]12CCN(CC1)CC2 [JE188, 1-aza-4-azonia-4-dodecylbicyclo[2.2.2]octane]		1.4±0.1		3	1.4±0.1		inhibition of Kv2.1 (50 μM): significantly inhibited; inhibition of Kv2.1 (250 μM): almost complete inhibition; IC50 (Kv2.1 alone, external bath application, Example 4, read-out: x0 of logistic dose-response fit of current inhibition (converted)): 23.3 ± 2.1 µM; sensitivity of Kv2.1 currents to compound relative to tetraethylammonium (externally applied): 500 fold
CCCCCCCCCCCCCCCC[N+]12CCN(CC1)CC2 [TA279, 1-aza-4-azonia-4-hexadecylbicyclo[2.2.2]octane]		0.6±0.4		3	0.8±0.1	1.9 ± 3.6	sensitivity of Kv2.1 currents to TA279 relative to JE188: 20 fold; inhibition of Kv2.1 (1 μM): inhibiting; inhibition of Kv2.1 (5 mM): almost complete inhibition; time for washout (compared with TEA): several minutes; IC50 (x0 of logistic dose-response fit of current inhibition, Kv2.1 alone, external bath application, Example 4): 1 ± 0.8 µM
C(CC[N+]12CCN(CC1)CC2)C[N+]12CCN(CC1)CC2 [TG26]	less effective than TG27		Kv2.1 was more sensitive than Kv3.4				
C(CCCC[N+]12CCN(CC1)CC2)CCC[N+]12CCN(CC1)CC2 [TG27, 1,8-[bis(4-aza-1-azoniabicyclo[2.2.2]octanyl)]octane]		2.1±0.8	Kv2.1 was more sensitive than Kv3.4			270 ± 66.4	
